Measurements taken from the supplement of paper PMC4862054.

Assays:
Assay in all cases: normalised viability (% of control), CellTiter-Blue; higher = more viable cells (about 100 = DMSO control)
Conditions in all cases: incubation time: 72 h
[1] = system: CAL-148
Procedure, shortened: (§1)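 384-well plates were pre-loaded with compound in 5 µl medium before 20 µl of breast cancer cell suspension was seeded. Following 72 h incubation, 2.5 µl CellTiter-Blue reagent was added for 2 h at 37 °C. Fluorescence was read at 560/590 nm and plates were normalised to vehicle (100) and a positive kill control (0), checked by Z'-factor. Normalised viability is reported at a single listed concentration of the series.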

[2] = system: HCC1143
Procedure, shortened: as §1

[3] = system: HCC1937
Procedure, shortened: as §1

[4] = system: CAL-51
Procedure, shortened: as §1

[5] = system: HCC1599
Procedure, shortened: as §1

[6] = system: DU-4475
Procedure, shortened: as §1

[7] = system: MFM-223
Procedure, shortened: as §1

[8] = system: MDA-MB-436
Procedure, shortened: as §1

[9] = system: BT-549
Procedure, shortened: as §1

[10] = system: MDA-MB-231
Procedure, shortened: as §1

[11] = system: CAL-148; remark: listed apart in the source
Procedure, shortened: as §1

[12] = system: HCC1143; remark: listed apart in the source
Procedure, shortened: as §1

[13] = system: HCC1937; remark: listed apart in the source
Procedure, shortened: as §1

[14] = system: CAL-120
Procedure, shortened: as §1

[15] = system: CAL-51; remark: listed apart in the source
Procedure, shortened: as §1

[16] = system: SK-BR-3
Procedure, shortened: as §1

[17] = system: HCC1599; remark: listed apart in the source
Procedure, shortened: as §1

[18] = system: DU-4475; remark: listed apart in the source
Procedure, shortened: as §1

[19] = system: HDQ-P1
Procedure, shortened: as §1

[20] = system: MFM-223; remark: listed apart in the source
Procedure, shortened: as §1

[21] = system: BT-474
Procedure, shortened: as §1

[22] = system: MDA-MB-453
Procedure, shortened: as §1

[23] = system: MDA-MB-436; remark: listed apart in the source
Procedure, shortened: as §1

[24] = system: MDA-MB-468
Procedure, shortened: as §1

[25] = system: BT-549; remark: listed apart in the source
Procedure, shortened: as §1

[26] = system: Hs578T
Procedure, shortened: as §1

[27] = system: CAL-85-1
Procedure, shortened: as §1

COc1ncc(-c2ccc3nccc(-c4ccnnc4)c3c2)cc1NS(=O)(=O)c1ccc(F)cc1F
Conditions | normalised viability [%]
[1], 1 nM | 111
[2], 10 nM | 68.2
[3], 10 nM | 78.5
[4], 1 nM | 85.7
[5], 10 nM | 57.1
[6], 1 nM | 88.1
[7], 10 nM | 53.1
[8], 10 nM | 83
[9], 10 nM | 95.9
[10], 10 nM | 80
[11], 0.3 nM | 88.2
[11], 3 nM | 96.4
[11], 10 nM | 85.4
[12], 1 nM | 72.4
[12], 100 nM | 35.4
[12], 1000 nM | 16.5
[13], 1 nM | 94
[13], 100 nM | 47.2
[13], 1000 nM | 32.5
[14], 1 nM | 84.2
[14], 100 nM | 28.9
[14], 1000 nM | 16.1
[15], 0.3 nM | 93.7
[15], 3 nM | 75.3
[15], 10 nM | 56.5
[16], 1 nM | 77.7
[16], 100 nM | 14.2
[16], 1000 nM | 9.4
[17], 1 nM | 88
[17], 100 nM | 34.5
[17], 1000 nM | 29.3
[18], 0.3 nM | 87.5
[18], 3 nM | 94.4
[18], 10 nM | 82.1
[19], 0.3 nM | 95.3
[19], 3 nM | 70.5
[19], 10 nM | 51.8
[20], 1 nM | 99.9
[20], 100 nM | 21.3
[20], 1000 nM | 14.6
[21], 1 nM | 110
[21], 100 nM | 19.2
[21], 1000 nM | 6.63
[22], 0.3 nM | 103
[22], 3 nM | 67.2
[22], 10 nM | 36.7
[23], 1 nM | 105
[23], 100 nM | 34.2
[23], 1000 nM | 22.8
[24], 1 nM | 92.9
[24], 100 nM | 34.3
[24], 1000 nM | 7.54
[25], 1 nM | 88
[25], 100 nM | 29.4
[25], 1000 nM | 14.7
[26], 1 nM | 107
[26], 100 nM | 33.5
[26], 1000 nM | 9.34
[27], 0.3 nM | 89.5
[27], 3 nM | 75.9
[27], 10 nM | 73.2

C[C@@]1(C(=O)Nc2ccc(F)nc2)CCCN1c1nc(Nc2cc(C3CC3)n[nH]2)c2cccn2n1
Conditions | normalised viability [%]
[1], 10 nM | 94
[2], 100 nM | 72.8
[3], 100 nM | 88.3
[4], 10 nM | 97
[5], 100 nM | 73.3
[6], 10 nM | 90.4
[7], 100 nM | 88.2
[8], 100 nM | 92.6
[9], 100 nM | 109
[10], 100 nM | 93.8
[11], 3 nM | 88.5
[11], 30 nM | 99.1
[11], 100 nM | 95.1
[12], 10 nM | 105
[12], 1000 nM | 64.1
[12], 10000 nM | 45.6
[13], 10 nM | 127
[13], 1000 nM | 73.2
[13], 10000 nM | 29.4
[14], 10 nM | 94
[14], 1000 nM | 63
[14], 10000 nM | 21.1
[15], 3 nM | 99
[15], 30 nM | 97.4
[15], 100 nM | 84.9
[16], 10 nM | 99.1
[16], 1000 nM | 71
[16], 10000 nM | 56.4
[17], 10 nM | 92.5
[17], 1000 nM | 55
[17], 10000 nM | 54.1
[18], 3 nM | 97.3
[18], 30 nM | 91.7
[18], 100 nM | 83.8
[19], 3 nM | 120
[19], 30 nM | 82
[19], 100 nM | 73.5
[20], 10 nM | 88.5
[20], 1000 nM | 52.6
[20], 10000 nM | 25.3
[21], 10 nM | 109
[21], 1000 nM | 87.6
[21], 10000 nM | 82
[22], 3 nM | 100
[22], 30 nM | 84
[22], 100 nM | 105
[23], 10 nM | 122
[23], 1000 nM | 94.3
[23], 10000 nM | 33.9
[24], 10 nM | 115
[24], 1000 nM | 61
[24], 10000 nM | 40.7
[25], 10 nM | 97.8
[25], 1000 nM | 77.6
[25], 10000 nM | 34.4
[26], 10 nM | 114
[26], 1000 nM | 75.8
[26], 10000 nM | 38.1
[27], 3 nM | 92
[27], 30 nM | 75
[27], 100 nM | 87.9

COc1c(C)cnc(Cn2cnc3c(Cl)nc(N)nc32)c1C [BIIB021]
Conditions | normalised viability [%]
[1], 10 nM | 82.3
[2], 100 nM | 58.8
[3], 100 nM | 59.6
[4], 10 nM | 100
[5], 100 nM | 101
[6], 10 nM | 82.6
[7], 100 nM | 53.9
[8], 100 nM | 89.8
[9], 100 nM | 52.6
[10], 100 nM | 61.4
[11], 3 nM | 87
[11], 30 nM | 88.6
[11], 100 nM | 72.3
[12], 10 nM | 80.8
[12], 1000 nM | 32.1
[12], 10000 nM | 30.6
[13], 10 nM | 83.1
[13], 1000 nM | 25.1
[13], 10000 nM | 22.1
[14], 10 nM | 84.1
[14], 1000 nM | 18.4
[14], 10000 nM | 15.2
[15], 3 nM | 103
[15], 30 nM | 102
[15], 100 nM | 101
[16], 10 nM | 85.7
[16], 1000 nM | 14.5
[16], 10000 nM | 12.8
[17], 10 nM | 102
[17], 1000 nM | 58.8
[17], 10000 nM | 40.7
[18], 3 nM | 94.8
[18], 30 nM | 76.1
[18], 100 nM | 80.8
[19], 3 nM | 110
[19], 30 nM | 110
[19], 100 nM | 77.8
[20], 10 nM | 81.9
[20], 1000 nM | 23
[20], 10000 nM | 23.8
[21], 10 nM | 104
[21], 1000 nM | 22.9
[21], 10000 nM | 27.3
[22], 3 nM | 96.5
[22], 30 nM | 79.5
[22], 100 nM | 38.4
[23], 10 nM | 92.5
[23], 1000 nM | 43.5
[23], 10000 nM | 25.5
[24], 10 nM | 93.5
[24], 1000 nM | 43.2
[24], 10000 nM | 21.3
[25], 10 nM | 87.8
[25], 1000 nM | 36.5
[25], 10000 nM | 31.1
[26], 10 nM | 95.3
[26], 1000 nM | 61
[26], 10000 nM | 46.9
[27], 3 nM | 81
[27], 30 nM | 81.5
[27], 100 nM | 86.1
